51 compounds from US9018224B2, “Substituted cyclopropyl compounds useful as GPR119 agonists” (Merck Sharp & Dohme Corp., priority 2011, dated 2015) can be followed below.

Usually EC50 stands for the concentration that produces a half-maximal response.

The target in the experiment is T1, human GPR119 (Homo sapiens, UniProt Q8TDV5).
T1 sequence (Q8TDV5 1-308 limits assumed): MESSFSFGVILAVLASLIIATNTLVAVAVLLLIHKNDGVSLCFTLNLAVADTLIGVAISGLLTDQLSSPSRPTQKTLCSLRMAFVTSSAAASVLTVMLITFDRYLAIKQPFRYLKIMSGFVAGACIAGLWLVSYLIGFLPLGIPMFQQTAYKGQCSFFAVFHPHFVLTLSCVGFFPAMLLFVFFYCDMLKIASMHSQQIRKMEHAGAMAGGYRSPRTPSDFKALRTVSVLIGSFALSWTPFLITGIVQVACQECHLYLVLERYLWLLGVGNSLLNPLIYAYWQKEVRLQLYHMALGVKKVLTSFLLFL
Description: Measurement of GPR119 signaling by cAMP (LANCE cAMP kit or HTRF) in HEK293 cells transfected with human GPR119. Type of experiment: cell-based. Particulars: agonist cAMP response in HEK293 cells stably transfected with human GPR119; patent does not say which of the two cAMP formats (LANCE or HTRF). In a few lines:
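LANCE TR-FRET cAMP readout; detection with Eu-SA/biotin-cAMP tracer for 3 h, signal converted to cAMP via standard curve, duplicates, 4-parameter fit vs DMSO basal and internal agonist maximum.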
On to `COCc1cnc(N2CCC([C@H]3C[C@H]3CCOc3ccc(CC(=O)N4CC(C)C4)cc3)CC2)nc1` [Example 14], for which the EC50 worked out at 5.5 nM. For `O=C(Cc1ccc(OCC[C@@H]2C[C@@H]2C2CCN(c3ncc(Cl)cn3)CC2)cc1F)N1CCCCC1` [Example 84] the value was 1.5 nM; for `CCOCc1cnc(N2CCC([C@H]3C[C@H]3CCOc3ccc(CC(=O)N4CC(F)C4)c(F)c3)CC2)nc1` [Example 201], 0.49 nM. In the case of `O=C(Cc1ccc(OCC[C@@H]2C[C@@H]2C2CCN(c3ncc(Cl)cn3)CC2)cc1F)N1CCc2ncccc2C1` [Example 198] it was 1.3 nM.

`O=C(Cc1ccc(OCC[C@@H]2C[C@@H]2C2CCN(c3ncc(Cl)cn3)CC2)cc1F)N1CCc2nc(C3CC3)oc2C1` [Example 150] displayed an EC50 of 3.2 nM. Compared with the last compound, the EC50 is about 2.5-fold higher. For `CN(C(=O)Cc1ccc(OCC[C@@H]2C[C@@H]2C2CCN(c3ncc(Cl)cn3)CC2)cc1F)C1CCCC1` [Example 82] the value was 2.9 nM.

Compound `COCc1cnc(N2CCC([C@H]3C[C@H]3CCOc3ccc(CC(=O)N4CC(F)C4)c(F)c3)CC2)nc1` [Example 43] had an EC50 of 0.54 nM. In the case of `COCc1cnc(N2CCC([C@H]3C[C@H]3CCOc3ccc(CC(=O)N4CCC4)cc3F)CC2)nc1` [Example 251] it was 5.5 nM; in that of `CCc1cnc(N2CCC([C@H]3C[C@H]3CCOc3ccc(CC(=O)N4CCC4)c(C)c3)CC2)nc1` [Example 16], 1.1 nM; in that of `O=C(Cc1ccc(OCC[C@@H]2C[C@@H]2C2CCN(c3ncc(Cl)cn3)CC2)cc1F)NCC1CCCCC1` [Example 112], 6.1 nM. In the case of `COc1cnc(N2CCC([C@H]3C[C@H]3CCOc3cc(F)c(CC(=O)N4CC(OC)C4)c(F)c3)CC2)nc1` [Example 211], the EC50 worked out at 0.11 nM. `COc1cnc(N2CCC([C@H]3C[C@H]3CCOc3ccc(CC(=O)N4CCC4)c(F)c3)CC2)nc1` [Example 37] came in with an EC50 of 0.94 nM. This EC50 lies about 8.5-fold higher than the previous one.

Take `O=C(Cc1ccc(OCC[C@@H]2C[C@@H]2C2CCN(c3ncc(Cl)cn3)CC2)cc1F)N1CCn2ccnc2C1` [Example 149]: a half-maximal response (EC50) required 1.1 nM. In the case of `O=C(Cc1ccc(OCC[C@@H]2C[C@@H]2C2CCN(c3ncc(Cl)cn3)CC2)cc1F)N1CCC(F)(F)C1` [Example 72] it was 0.5 nM; in that of `O=C(Cc1ccc(OCC[C@@H]2C[C@@H]2C2CCN(c3ncc(Cl)cn3)CC2)cc1)N1CCCC1` [Example 3], 2.1 nM; in that of `CC1c2cccn2CCN1C(=O)Cc1ccc(OCC[C@@H]2C[C@@H]2C2CCN(c3ncc(Cl)cn3)CC2)cc1F` (stereo partly drawn) [Example 174], 1.2 nM. For `CCC(CO)NC(=O)Cc1ccc(OCC[C@@H]2C[C@@H]2C2CCN(c3ncc(Cl)cn3)CC2)cc1F` (stereo partly drawn) [Example 114], a half-maximal response (EC50) required 3.7 nM. With `COCc1cnc(N2CCC([C@H]3C[C@H]3CCOc3ccc(Cc4nnco4)c(F)c3)CC2)nc1` [Example 246], the EC50 was 7.7 nM. For `O=C(Cc1ccc(OCC[C@@H]2C[C@@H]2C2CCN(c3ncc(Cl)cn3)CC2)cc1F)N1CCc2nccnc2C1` [Example 125] the value was 0.96 nM; for `O=C(Cc1ccc(OCC[C@@H]2C[C@@H]2C2CCN(c3ncc(Cl)cn3)CC2)cc1F)N1CCOCC1` [Example 80], 0.76 nM; for `COCc1cnc(N2CCC([C@H]3C[C@H]3CCOc3ccc(CC(=O)N4CCC4)cc3)CC2)nc1` [Example 9], 3.8 nM. Turning to `COc1cnc(N2CCC([C@H]3C[C@H]3CCOc3cc(F)c(CC(=O)N(C)C)c(F)c3)CC2)nc1` [Example 213], the EC50 is 0.23 nM. In the case of `COCc1cnc(N2CCC([C@H]3C[C@H]3CCOc3ccc(CC(=O)N4CCCCC4)c(F)c3)CC2)nc1` [Example 48] it was 0.99 nM. In the case of `CC1(C)CN(C(=O)Cc2ccc(OCC[C@@H]3C[C@@H]3C3CCN(c4ncc(Cl)cn4)CC3)cc2F)Cc2nnc(C(F)(F)F)n21` [Example 179] it was 1.1 nM; in that of `CCc1cnc(N2CCC([C@H]3C[C@H]3CCOc3ccc(CC(=O)N(C)C)c(C)c3)CC2)nc1` [Example 19], 2.3 nM; in that of `O=C(Cc1ccc(OCC[C@@H]2C[C@@H]2C2CCN(c3ncc(Cl)cn3)CC2)cc1F)NCC1(O)CC1` [Example 101], 5.2 nM. In the case of `CC1CC(C)CN(C(=O)Cc2ccc(OCC[C@@H]3C[C@@H]3C3CCN(c4ncc(Cl)cn4)CC3)cc2F)C1` (stereo partly drawn) [Example 89] it was 8.6 nM. Regarding `Cn1nc(C(F)(F)F)c2c1CN(C(=O)Cc1ccc(OCC[C@@H]3C[C@@H]3C3CCN(c4ncc(Cl)cn4)CC3)cc1F)CC2` [Example 189], the EC50 stood at 6 nM. For `O=C(Cc1ccc(OCC[C@@H]2C[C@@H]2C2CCN(c3ncc(Cl)cn3)CC2)cc1F)N1CC(O)(C(F)(F)F)C1` [Example 67] the value was 0.68 nM; for `COCc1cnc(N2CCC([C@H]3C[C@H]3CCOc3ccc(Cc4nncs4)c(F)c3)CC2)nc1` [Example 248, 2-[4-((1R,2S)-2-{2-[3-fluoro-4-(1,3,4-thiadiazol-2-ylmethyl)phenoxy]ethyl}cyclopropyl)piperidin-1-yl]-5-(methoxymethyl)pyrimidine], 4.2 nM. For the compound `CCOCc1cnc(N2CCC([C@H]3C[C@H]3CCOc3ccc(CC(=O)N4CC(OC)C4)c(F)c3)CC2)nc1` [Example 203], the EC50 stood at 1.2 nM. For `Cc1nc2c(o1)CCN(C(=O)Cc1ccc(OCC[C@@H]3C[C@@H]3C3CCN(c4ncc(Cl)cn4)CC3)cc1F)C2` [Example 136] the value was 0.73 nM; for `CCN(C(=O)Cc1ccc(OCC[C@@H]2C[C@@H]2C2CCN(c3ncc(Cl)cn3)CC2)cc1F)C(C)C` [Example 102], 3 nM. For `COCc1cnc(N2CCC([C@H]3C[C@H]3CCOc3cc(F)c(CC(=O)N4CC(F)C4)c(F)c3)CC2)nc1` [Example 220] the value was 0.14 nM; for `O=C(Cc1ccc(OCC[C@@H]2C[C@@H]2C2CCN(c3ncc(Cl)cn3)CC2)cc1F)NCC1CC1` [Example 77, 2-[4-(2-(1S,2R)-2-[1-(5-chloropyrimidin-2-yl)piperidin-4-yl]cyclopropylethoxy)-2-fluorophenyl]-N-(cyclopropylmethyl)acetamide], 1.5 nM; for `O=C(Cc1ccc(OCC[C@@H]2C[C@@H]2C2CCN(c3ncc(Cl)cn3)CC2)cc1F)N1CCCc2[nH]nc(C3CC3)c21` [Example 196], 5.4 nM. `COCc1ccc(N2CCC([C@H]3C[C@H]3CCOc3ccc(CC(=O)N4CCC4)c(F)c3)CC2)nc1` [Example 237, 1-(azetidin-1-yl)-2-(2-fluoro-4-{2-[(1S,2R)-2-{1-[5-(methoxymethyl)pyridin-2-yl]piperidin-4-yl}cyclopropyl]ethoxy}phenyl)ethanone]: the EC50 was 0.94 nM. This EC50 is about 5.7-fold lower than that of the compound before.

With `COC[C@@H]1CCCN1C(=O)Cc1ccc(OCC[C@@H]2C[C@@H]2C2CCN(c3ncc(Cl)cn3)CC2)cc1F` [Example 78], a half-maximal effect (EC50) was put at 3.8 nM.

In turn, `COc1cnc(N2CCC([C@H]3C[C@H]3CCOc3ccc(CC(=O)N4CC(F)C4)c(F)c3)CC2)nc1` [Example 39] yielded an EC50 of 0.48 nM. In the case of `CC1c2nnc(C(F)(F)F)n2C(C)CN1C(=O)Cc1ccc(OCC[C@@H]2C[C@@H]2C2CCN(c3ncc(Cl)cn3)CC2)cc1F` (stereo partly drawn) [Example 193] it was 1.1 nM. For `CCOc1cnc(N2CCC([C@H]3C[C@H]3CCOc3cc(F)c(CC(=O)N4CC(C)(O)C4)c(F)c3)CC2)nc1` [Example 233] the value was 0.66 nM; for `COCc1cnc(N2CCC([C@H]3C[C@H]3CCOc3ccc(CC(=O)N(C)C4COC4)c(F)c3)CC2)nc1` [Example 54], 2.5 nM; for `C[C@H](CO)NC(=O)Cc1ccc(OCC[C@@H]2C[C@@H]2C2CCN(c3ncc(Cl)cn3)CC2)cc1F` [Example 113], 3.9 nM. `CCOc1cnc(N2CCC([C@H]3C[C@H]3CCOc3cc(F)c(CC(=O)N4CC(F)C4)c(F)c3)CC2)nc1` [Example 230] showed an EC50 of 0.11 nM. With `O=C(Cc1ccc(OCC[C@@H]2C[C@@H]2C2CCN(c3ncc(Cl)cn3)CC2)cc1F)N1CCn2nc(C3CC3)nc2C1` [Example 148], the EC50 stood at 1.2 nM. In the case of `O=C(Cc1ccc(OCC[C@@H]2C[C@@H]2C2CCN(c3ncc(Cl)cn3)CC2)cc1F)N1Cc2sccc2C(O)C1` (stereo partly drawn) [Example 173] it was 0.97 nM; in that of `CN(C(=O)Cc1ccc(OCC[C@@H]2C[C@@H]2C2CCN(c3ncc(Cl)cn3)CC2)cc1F)C1CCOC1` (stereo partly drawn) [Example 154], 0.41 nM.

In turn, `O=C(Cc1ccc(OCC[C@@H]2C[C@@H]2C2CCN(c3ncc(Cl)cn3)CC2)nc1)N1CCC1` [Example 242] had an EC50 of 9.4 nM. For `COCc1cnc(N2CCC([C@H]3C[C@H]3CCOc3ccc(CC(=O)N4CC(O)C4)c(F)c3)CC2)nc1` [Example 42] the value was 3.4 nM. In the case of `Cn1ccc2c1CCN(C(=O)Cc1ccc(OCC[C@@H]3C[C@@H]3C3CCN(c4ncc(Cl)cn4)CC3)cc1F)C2` [Example 145] it was 6.3 nM; in that of `COCc1cnc(N2CCC([C@H]3C[C@H]3CCOc3ccc(CC(=O)N(C)C4CC4)c(F)c3)CC2)nc1` [Example 55], 4.4 nM.
